Assay results as given in patent US20230263801A1, “COMBINATION THERAPY OF PARP INHIBITORS” (IMPACT THERAPEUTICS (SHANGHAI), INC, priority 2020, published 2023).
Where two headings read alike, the source gives them in different places. Marks after values point to notes of the source that are not given here.

Tests used:
[1] = system: animal model with BRCA mutation; assay: IMP4297 single agent efficacy in animal model with BRCA mutation; type: in vivo; conditions: 2.5-20 mg/kg QD in mice
[2] = system: cancer; assay: Clinical studies of IMP4297 as a single agent in patients with cancer (ESMO 2020 abstracts); type: in vivo; conditions: 20-120 mg QD in human
[3] = target: T1, PARP1 (Homo sapiens, UniProt P09874); assay: PARP1 trapping in HCT116 cells treated with TMZ (Western blot of chromatin-bound proteins, ImageJ); type: cell-based; design: endogenous in cells; host or cells: HCT116; conditions: for grey density value of PARP1 band: 4 hours, HCT116
Experimental: Colorectal carcinoma HCT116 cells were used in the experiment Cells in exponential growth phase were trypsinized and seeded to 10 cm cell culture plate at a density about 10-20% confluency After two days when cell density reached 70-80%, the cell culture was replaced with fresh medium containing vehicle, 0.1 μM or 10 μM of IMP4297 either in the presence or absence of 1 mM TMZ. Cells were treated for 4 hours. Chromatin-bound proteins were extracted according to the “Subcellular Protein Fractionation Kit for Cultured Cells (Thermo, LOT78840)” protocol.
PARP trapping was detected using SDS-PAGE electrophoresis followed by Western blot Extracted chromatin-bound protein samples were mixed with 5×SDS-PAGE solution and heated for 5 min at 100° C. Equal amount (25-30 μg) of protein was loaded to each lane on a pre-made SDS-PAGE gel (Genscript SurePAGE™, Bis-Tris, 4-20%, 15 wells M00657). Anti-PARP1 antibody (ABCAM ab227244) used in the study was 1:1000 diluted, anti-Histone 113 antibody (ABCAM ab1791) was 1.5000 diluted and anti-rabbit IgG HRP-linked Antibody (CST 7074s) was 1:2000 diluted. The bands were detected by standard Western blot protocol.

[4] = system: NCI-H209 human small cell lung cancer xenograft tumor; assay: In vivo efficacy of IMP4297 combined with TMZ in NCI-H209 xenograft tumor model; design: species or system nude mice; conditions: for body weight reduction during the experiment: single agent-treated groups (TMZ 3 mg/kg; IMP4297 10 mg/kg)
Experimental: The anti-tumor efficacy of the compound IMP4297 combined with TMZ was evaluated in the NCI-H209 human small cell lung cancer xenograft tumor model in nude mice. For this purpose, human small cell lung cancer NCI-H209 cells were inoculated into the subcutaneous breast area of the right axilla of nude mice. The cell inoculation amount was 2×10^6 logarithmic growth phase cells. The inoculated mice were used after transplanted tumors were formed. Vigorously growing tumor tissues were cut into small pieces of 1×1×1 mm^3, and inoculated under the skin of the breast area of the right axilla of each BALB/c nude mouse. When the average tumor volume reached about 124.08 (57.16-280.79) mm^3, nude mice were randomly grouped according to the tumor volume and were administered the drugs.
After grouping and drug treatment start, the weight of nude mice was weighed twice a week and recorded. Weight change (%)=(Wt−W1)/W1×100%, wherein W1 is the body weight measured at the time of grouping administration (i.e D1), and Wt is the weight of the recording day. Weight change (%) is a measure of treatment-related toxicity (when average weight loss exceeded 15%, treatment was stopped or the schedule was adjusted until recovery; when average weight loss exceeded 20%, the experiment was terminated). The tumor diameter (length and width) was measured twice a week with a vernier caliper. The tumor volume (length×width^2/2) and the relative tumor volume RTV=Vt/V1 were calculated, wherein V1 is the tumor volume at the time of grouping administration (i.e. D1), and Vt is the tumor volume at each measurement. […] TGM(%)=[(CVt−CV1)−(TVt−TV1)]/(CVt−CV1)×100%, wherein […] is the tumor volume on the recording day of the vehicle control group, […] is the tumor volume of the vehicle control group at the time of grouping administration, TVt is the tumor volume of the drug administration group on the recording day, and TV1 is the tumor volume of the drug administration group at the time of grouping administration.
After the experiment, 3 nude mice were randomly selected from each group, and 300 μL of whole blood was collected from the orbit and placed in a BD K2EDTA anticoagulant tube (REF367841) for routine blood testing.
GraphPad Prism 6.0 software two-way ANOVA was used to compare the mean tumor volume and relative tumor volume between groups. Compared with the control group (vehicle), *p<0.05 (statistical difference), **p<0.01 (significant statistical difference), ***p<0.001 (very significant statistical difference); compared with the TMZ group, ^#p<0.05 (statistical difference), ^##p<0.01 (significant statistical difference), ^###p<0.001 (very significant statistical difference); compared with the IMP4297 group, ^+p<0.05 (statistical difference), ^++p<0.01 (significant statistical difference), ^+++p<0.001 (very significant statistical difference).

[5] = system: cancer; conditions: QD continuously, cited from earlier work
[6] = system: animal model with BRCA mutation; conditions: cited from earlier work
[7] = system: human small cell lung cancer NCI-H209 cells; assay: CCK-8 growth inhibition of NCI-H209 cells, IMP4297 alone and combined with TMZ; type: cell-based; conditions: NCI-H209, 120 h
Experimental: The CCK-8 detection method was used to determine the inhibitory effect of IMP4297 combined with TMZ on the growth of human small cell lung cancer NCI-H209 cells. The resuscitated human small cell lung cancer NCI-H209 cells were inoculated into a culture dish, experimental medium (RPMI1640+20% FBS) was added, and the culture dish was incubated at 37° C. and 5% CO2 in an incubator. Cells with good growth and suitable confluence were selected for the experiment, and centrifiged at 800 rpm for 5 min. The supernatant was discarded. The cells were resuspended with fresh medium and inoculated into a 96-well cell culture plate at a suitable cell density. 190 μL of cell suspension liquid was inoculated into each well. The test compound (including IMP4297, TMZ and reference compound AZD2281) was serially diluted with DMSO at a ratio of 1:3 and 1:10 to 10 concentrations (the last concentration is the DMSO negative control). 5 μL of each concentration was added to 120 μL of media (25 times dilution). The mixture was mixed well by shaking. Separate medication: 5 μL of the diluted medium containing the corresponding concentration of the compound and 5 μL of the medium were added respectively, combined medication. 5 μL of the diluted medium containing the corresponding concentration of the compound and 5 μL of the medium containing the final concentration of 50 μM of TMZ were added respectively. The final concentration of DMSO is […]. The culture plate was then incubated at 37° C. and 5% CO2 in an incubator for 5 days. 20 μL of CCK-8 detection reagent was added to each well, and the culture was continued for 2 hours. The culture plate was then shaked for 10 minutes and placed on a multi-function reader to measure the absorbance value (OD value) using the wavelength of 450/65011m. Graph Pad Prism 6.0 was used to analyze the data. The inhibitory effects of compounds on cell proliferation were plotted based on cell viability and the logarithm of compound concentration. Cell viability % (nM) ODcompound/ODDMSO×100. […] The combination index was calculated using CalcuSyn software. […]

[8] = target: T1, PARP1; assay: PARP1 trapping in DU145 cells treated with MMS (Western blot of nuclear chromosomal fraction, ImageJ); type: cell-based; design: the nuclear chromosomal component was extracted according to subcellular protein fractionation kit instructions; endogenous in cells; host or cells: DU145; conditions: for grey density value of PARP1 band: MMS 0.01%, 4 hours
Experimental: Human prostate cancer DU145 cells were used in the experiment. On the first day, cells were seeded to 10 cm cell culture dishes and kept in an incubator overnight. […] The plates were swirled, and the cells were kept in an incubator at 37° C., 5% CO2 for 4 hours. Totally 12 samples were prepared and tested. After incubation, the nuclear chromosomal component was extracted according to subcellular protein fractionation kit instructions. Protein concentration was measured by Pierce® BCA Protein Assay Kit (Thermo) and protein was ready for western blot assay. 10 μg protein was loaded into each well of bolt gels, then wet transfer was performed, and the membrane was incubated overnight at 4° C. with anti-PARP antibody (Santa Cruz Biotechnology) with 1.500 dilution and 1:25000 dilution of anti-H3 antibody, respectively. The membrane was washed the next day with TBST 3 times, 5 minutes/time, then incubated with Goat anti-rabbit IgG-HRP (Santa Cruz Biotechnology) in a 1:4000 dilution for 1 hour at room temperature. ECL Prime Western Blotting Det kit (GE) was used to develop the target on the membrane.

[9] = system: BRCA mutant animal model; conditions: cited from earlier work
[10] = system: recurrent glioblastoma; conditions: patients with recurrent glioblastoma; cited from earlier work
[11] = separate medication, 5 days, CCK-8, read-out: IC50, proliferation of NCI-H209 cells

T1 sequence (P09874 whole entry): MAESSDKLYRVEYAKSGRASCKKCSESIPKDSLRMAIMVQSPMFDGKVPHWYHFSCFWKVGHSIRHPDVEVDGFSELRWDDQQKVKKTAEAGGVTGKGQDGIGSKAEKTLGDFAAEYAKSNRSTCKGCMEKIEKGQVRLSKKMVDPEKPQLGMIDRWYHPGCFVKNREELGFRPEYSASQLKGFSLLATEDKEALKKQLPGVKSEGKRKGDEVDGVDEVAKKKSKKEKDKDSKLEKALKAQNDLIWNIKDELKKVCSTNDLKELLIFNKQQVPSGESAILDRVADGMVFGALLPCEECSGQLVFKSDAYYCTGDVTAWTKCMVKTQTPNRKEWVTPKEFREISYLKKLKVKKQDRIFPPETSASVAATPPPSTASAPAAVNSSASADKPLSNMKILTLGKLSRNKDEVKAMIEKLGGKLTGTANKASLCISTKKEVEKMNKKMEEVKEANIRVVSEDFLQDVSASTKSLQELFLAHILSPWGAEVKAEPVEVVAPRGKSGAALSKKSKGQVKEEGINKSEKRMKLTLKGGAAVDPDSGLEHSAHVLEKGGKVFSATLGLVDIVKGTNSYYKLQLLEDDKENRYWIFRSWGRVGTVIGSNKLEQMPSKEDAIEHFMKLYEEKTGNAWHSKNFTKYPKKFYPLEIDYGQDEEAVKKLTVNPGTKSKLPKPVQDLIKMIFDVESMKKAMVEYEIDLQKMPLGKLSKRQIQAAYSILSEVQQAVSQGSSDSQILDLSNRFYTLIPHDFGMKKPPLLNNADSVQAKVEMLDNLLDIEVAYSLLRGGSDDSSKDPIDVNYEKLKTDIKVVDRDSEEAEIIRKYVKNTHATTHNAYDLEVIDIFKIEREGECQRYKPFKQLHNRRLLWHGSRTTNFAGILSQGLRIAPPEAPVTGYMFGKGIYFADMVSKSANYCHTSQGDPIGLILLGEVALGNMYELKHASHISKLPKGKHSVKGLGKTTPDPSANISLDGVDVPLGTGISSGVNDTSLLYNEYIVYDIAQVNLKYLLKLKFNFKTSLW

With `O=C(c1cc(Cn2c(=O)[nH]c(=O)c3c(F)cccc32)ccc1F)N1CCN(c2ncccn2)CC1` [IMP4297, 5-fluoro-1-(4-fluoro-3-(4-(pyrimidin-2-yl)piperazine-1-carbonyl)benzyl)quinazoline-2,4(1H,3H)-dione] the therapeutic window [1] was 8 fold, the therapeutic window [2] was 6 fold and the “PARP1 trapping in nuclear chromosome” value ([3]; 0.1-10 μM in HCT116 cells in the presence of TMZ) was “good PARP1 trapping”. The “grey density value of PARP1 band” value ([3]; IMP4297 0.1 μmol/L in the presence of TMZ 1 mM) was 398, the “grey density value of PARP1 band” value ([3]; IMP4297 0.1 μmol/L, vehicle (no TMZ)) was 141 and the “grey density value of PARP1 band” value ([3]; IMP4297 10 μmol/L in the presence of TMZ 1 mM) was 446. The “grey density value of PARP1 band” value ([3]; IMP4297 10 μmol/L, vehicle (no TMZ)) was 182, the “T/C (%)” value ([4]; IMP4297 10 mpk p.o. QD x 21 D) was 79.12** % and the “TGI (%)” value ([4]; IMP4297 10 mpk p.o. QD x 21 D) was 18.80** %. The “body weight reduction during the experiment” value [4] was “no body weight reduction”, the “inhibitory effect on tumor growth versus vehicle” value ([4]; single agent: TMZ 3 mg/kg, IMP4297 10 mg/kg) was “no significant inhibitory effect on tumor growth” and the “clinically effective dose as a single agent” value ([5]; cancer patients) was 20 to 120 mg. The “RP2D as a single agent” value [5] was 100 mg, the “effective dose as a single agent” value [6] was 2.5-20 mg/kg per day and the IC50 [7, 11] was 113 nM. The “grey density value of PARP1 band” value ([8]; 0.01 μmol/L drug, DU145) was 3667.63, the “grey density value of PARP1 band” value ([8]; 0.1 μmol/L drug, DU145) was 4932.39 and the “grey density value of PARP1 band” value ([8]; 1 μmol/L drug, DU145) was 6036.79. For the same compound, the “grey density value of PARP1 band” value ([8]; 10 μmol/L drug, DU145) was 5302.8, the “PARP1 trapping in nuclear chromosome” value ([8]; 0.01-10 μM, DU145 cells treated with MMS) was “good PARP1 trapping” and the “PARP1 trapping compared with Olaparib” value ([8]; same concentrations and conditions, DU145) was “stronger PARP1 trapping in nuclear chromosome than Olaparib”.

For `O=C(c1cc(Cc2n[nH]c(=O)c3ccccc23)ccc1F)N1CCN(C(=O)C2CC2)CC1` [Olaparib], the single effective dose ([9]; BRCA mutant animal model study) is given as 50-100 mg/kg per day, the “effect on TMZ-related hematological toxicity” value [10] is given as “exacerbate TMZ-related hematological toxicity” and the IC50 ([7]; read-out: IC50, proliferation of NCI-H209 cells) is given as 2180 nM.

With `Cn1nnc2c(C(N)=O)ncn2c1=O` [TMZ, Temozolomide, reference compound] the “T/C (%)” value ([4]; TMZ 3 mg/kg p.o. QD x 21 D) was 64.03**** %, the “TGI (%)” value ([4]; TMZ 3 mg/kg p.o. QD x 21 D) was 31.66**** % and the “Average weight change (%)” value ([4]; TMZ 3 mg/kg p.o. QD x 21 D, versus initial weight) was 7.99 ± 5.21%. For the same compound, the “body weight reduction during the experiment” value [4] was “no body weight reduction” and the IC50 [7, 11] was greater than 100000 nM.

For `Cn1ncnc1[C@H]1c2n[nH]c(=O)c3cc(F)cc(c23)N[C@@H]1c1ccc(F)cc1` [Talazoparib], the “single agent effective dose” value ([9]; BRCA mutated model) is given as 0.33 mg/kg.
